For four molecules, kinact/KI and inhibition results are on record in patent US5658906A, “Cysteine protease and serine protease inhibitors” (Cephalon, Inc., priority 1996, dated 1997).

One test has as its target T1, Cathepsin B (Homo sapiens, UniProt P07858).
T1 construct: purchased Calbiochem 219364
Kind of test: Inhibition and rate of inactivation of cathepsin B (Cbz-Phe-Arg-AMC hydrolysis). Type of test: biochemical. Particulars: pH 6.0, 0.1 mM substrate, read-out: k2 (second order rate constant of inactivation), C = Cathepsin B.

In another test the target is T2, α-chymotrypsin (Bos taurus, UniProt P00766).
T2 construct: purchased Sigma Chem. Co. C-3142
Nature of the test: Inhibition of the serine protease α-chymotrypsin (Succ-Ala-Ala-Pro-Phe-AMC hydrolysis). It is filed as biochemical. Particulars: pH 7.5, 0.03 mM substrate. How it is done: Additionally,because α-chymotrypsin is not a calcium sensitive enzyme and is constituitively active, following addition of inhibitor stocks to the 96 well plates, 100 ul of a 2 fold concentrated stock of enzyme in dilution buffer was first added and the reaction started by addition of 100 ul of a 2 fold concentrated stock of substrate in assay buffer. Substrate hydrolysis was monitored every 5 minutes up to 30 minutes using a Fluoroskan II ([…]).

Test [1] deals with calpain I in Molt-4 cells (α-spectrin breakdown products). Nature of the test: Inhibition of calpain activation in intact Molt-4 cells (calpain-generated spectrin breakdown products). It is filed as cell-based. Particulars: Homo sapiens, calcium and ionophore (ionomycin), read-out: % Inhibition of BDPs (10 μM).
In the next test the target is T3, Cathepsin L (Homo sapiens, UniProt P07711).
T3 construct: purchased Calbiochem 219402
Nature of the test: Inhibition and rate of inactivation of cathepsin L (Cbz-Phe-Arg-AMC hydrolysis). Type of test: biochemical. Conditions: pH 6.0, 0.006 mM substrate, read-out: k2 (second order rate constant of inactivation), B = Cathepsin L. How it is done:
Additionally, the order of reagents added to the plate was altered because both enzymes are constitutively active. Following inhibitor addition to the plates appropriate 2× concentrated stock dilutions of the enzyme preparations were made in assay buffer and 100 ul added to each well. The assay was initiated by addition of 100 ul of 2× concentrated stock dilution of substrate in assay buffer. Substrate hydrolysis was monitored using a Fluroskan II (ex=390 nm; em=460 nm).
Inhibition of enzyme activity was calculated as the percent decrease in the rate of substrate hydrolysis in the presence of inhibitor (.upsilon.i) relative to the rate in its absence (.upsilon.o). Comparison between .upsilon.o and .upsilon.i was made within the linear range for substrate hydrolysis. For screening, compounds were tested at 10 μM. Compounds having ≥50% inhibition at 10 μM were considered active. Apparent second order rate constants were determined from analysis of reaction progress curves under pseudo-first order conditions. Each determination represents the mean of three or more independent single cuvette analyses continually monitored via a Perkin-Elmer LS50B spectrofluorimeter. The rate of inhibition of hydrolysis was obtained by fitting the curve to the exponential equation (1):
y=Ae^-k.spsb.obs·t +B (1)
where y (Pt) is the product formed at time t. A and B are constants. A, the amplitude of the reaction, is given by [Po -P.varies. ] and B (=P.varies.) is the maximal product formed when the reaction is […]. This was corrected for the presence of equation (2): […]

SMILES strings stand for the structures.

T3 sequence (P07711 114-333): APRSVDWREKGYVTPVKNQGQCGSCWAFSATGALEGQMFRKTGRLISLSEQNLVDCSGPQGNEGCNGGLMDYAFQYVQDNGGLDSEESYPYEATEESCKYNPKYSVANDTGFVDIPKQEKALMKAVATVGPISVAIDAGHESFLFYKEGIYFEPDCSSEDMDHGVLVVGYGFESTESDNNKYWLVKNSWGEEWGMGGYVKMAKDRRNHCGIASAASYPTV

In general, inhibition refers to the percentage by which the read-out fell short of the control. With `CC(C)C[C@H](NC(=O)OCc1ccccc1)C(=O)N[C@@H](Cc1ccccc1)C(=O)COn1nnc2ccccc21` [Example 3, 1-[N-[N-Benzyloxycarbonyl-L-leucyl]-3S-4-phenyl-3-amino-2-oxobutyloxy]benzotriazole], the kinact/KI was found to be 117000 M⁻¹ s⁻¹ at Cathepsin B and 100000 M⁻¹ s⁻¹ on Cathepsin L. In addition, the inhibition at 10 µM at α-chymotrypsin came out at 86%; in test [1] it was 67%.

As to `CC[C@H](NC(=O)[C@H](CC(C)C)NC(=O)OCc1ccccc1)C(=O)COn1nnc2ccccc21` [Example 5, 1-[N-[N-Benzyloxycarbonyl-L-leucyl]-3S-3-amino-2-oxopentyloxy] benzotriazole], the kinact/KI at Cathepsin B stood at 443000 M⁻¹ s⁻¹; on Cathepsin L, 3e+06 M⁻¹ s⁻¹. Further, the figures for the inhibition at 10 µM (against α-chymotrypsin; in test [1]) were 34% and 56%, respectively.

In the case of `CC(C)C[C@H](NC(=O)OCc1ccccc1)C(=O)N[C@@H](Cc1ccccc1)C(=O)COn1nnc2cccnc21` [Example 6, 3-[N-[N-Benzyloxycarbonyl-L-leucyl]-3S-4-phenyl-3-amino-2-oxobutyloxy]-3H-triazolo[4,5-b]pyridine], the kinact/KI on Cathepsin B was 107000 M⁻¹ s⁻¹; at Cathepsin L, 40000 M⁻¹ s⁻¹. Further, the values for the inhibition at 10 µM (on α-chymotrypsin; in test [1]) were 81% and 63%, respectively.

Consider `CC(C)C[C@H](NC(=O)OCc1ccccc1)C(=O)N[C@@H](Cc1ccccc1)C(=O)COn1nnc2ccccc2c1=O` [Example 28, 1-[N-[N-Benzyloxycarbonyl-L-leucyl]-3S-4-phenyl-3-amino-2-oxobutyloxy]-3-benzotriazin-4-one], for which the results for the kinact/KI at Cathepsin B and at Cathepsin L were 7000 M⁻¹ s⁻¹ and 70000 M⁻¹ s⁻¹, respectively. The inhibition at 10 µM at α-chymotrypsin worked out at 82%; in test [1], 68%.
